Columns and labels:
Test in all cases: relative viability (nuclei count vs DMSO), 5 days (fraction); higher = more cells survive
[1] = compound: COc1cc2ncn(-c3cc(OCc4ccccc4C(F)(F)F)c(C(N)=O)s3)c2cc1OC + C[C@@H](Oc1cc(-c2cnn(C3CCNCC3)c2)cnc1N)c1c(Cl)ccc(F)c1Cl [Crizotinib] (partner 1 µM)
In short: (§1)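 Lung cancer cell lines were pin-tool dosed in 1536-well plates on the day after seeding, with either a lone drug or a fixed anchor-drug dose plus five library-drug doses (not always all listed) in √10 steps. Nuclei were counted on 4× images after 5 days. Relative viability is the ratio of treated-well to vehicle-well nuclei counts, with each value a median of duplicate plates.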

[2] = compound: COc1cc2ncn(-c3cc(OCc4ccccc4C(F)(F)F)c(C(N)=O)s3)c2cc1OC + Cc1nc(Nc2ncc(C(=O)Nc3c(C)cccc3Cl)s2)cc(N2CCN(CCO)CC2)n1 [Dasatinib] (partner 0.075 µM)
In short: as §1

[3] = compound: COc1cc2ncn(-c3cc(OCc4ccccc4C(F)(F)F)c(C(N)=O)s3)c2cc1OC + CS(=O)(=O)N1CCN(Cc2cc3nc(-c4cccc5[nH]ncc45)nc(N4CCOCC4)c3s2)CC1 [Pictilisib] (partner 1 µM)
In short: as §1

[4] = compound: COc1cc2ncn(-c3cc(OCc4ccccc4C(F)(F)F)c(C(N)=O)s3)c2cc1OC + O=C(CCCCCCC(=O)Nc1ccccc1)NO [Vorinostat] (partner 1 µM)
In short: as §1

## LXF-289
[1]; first compound 0.05 µM
  relative viability: 0.8
[1]; first compound 0.1581 µM
  relative viability: 0.615
[1]; first compound 0.5 µM
  relative viability: 0.453
[1]; first compound 1.581 µM
  relative viability: 0.147
[1]; first compound 5 µM
  relative viability: 0.0723
[2]; first compound 0.05 µM
  relative viability: 0.225
[2]; first compound 0.1581 µM
  relative viability: 0.206
[2]; first compound 0.5 µM
  relative viability: 0.124
[2]; first compound 1.581 µM
  relative viability: 0.037
[2]; first compound 5 µM
  relative viability: 0.0349
[3]; first compound 0.05 µM
  relative viability: 0.789
[3]; first compound 0.1581 µM
  relative viability: 0.752
[3]; first compound 0.5 µM
  relative viability: 0.447
[3]; first compound 1.581 µM
  relative viability: 0.0857
[3]; first compound 5 µM
  relative viability: 0.0529
[4]; first compound 0.05 µM
  relative viability: 0.78
[4]; first compound 0.1581 µM
  relative viability: 0.622
[4]; first compound 0.5 µM
  relative viability: 0.421
[4]; first compound 1.581 µM
  relative viability: 0.11
[4]; first compound 5 µM
  relative viability: 0.0692

## NCI-H23
[1]; first compound 0.05 µM
  relative viability: 0.754
[1]; first compound 0.1581 µM
  relative viability: 0.362
[1]; first compound 0.5 µM
  relative viability: 0.258
[1]; first compound 1.581 µM
  relative viability: 0.127
[1]; first compound 5 µM
  relative viability: 0.121
[2]; first compound 0.05 µM
  relative viability: 0.801
[2]; first compound 0.1581 µM
  relative viability: 0.636
[2]; first compound 0.5 µM
  relative viability: 0.426
[2]; first compound 1.581 µM
  relative viability: 0.11
[2]; first compound 5 µM
  relative viability: 0.0948
[3]; first compound 0.05 µM
  relative viability: 0.451
[3]; first compound 0.1581 µM
  relative viability: 0.339
[3]; first compound 0.5 µM
  relative viability: 0.228
[3]; first compound 1.581 µM
  relative viability: 0.148
[3]; first compound 5 µM
  relative viability: 0.117
[4]; first compound 0.05 µM
  relative viability: 0.519
[4]; first compound 0.1581 µM
  relative viability: 0.284
[4]; first compound 0.5 µM
  relative viability: 0.0883
[4]; first compound 1.581 µM
  relative viability: 0.121
[4]; first compound 5 µM
  relative viability: 0.0755

## NCI-H322M
[1]; first compound 0.05 µM
  relative viability: 0.741
[1]; first compound 0.1581 µM
  relative viability: 0.94
[1]; first compound 0.5 µM
  relative viability: 0.724
[1]; first compound 1.581 µM
  relative viability: 0.419
[1]; first compound 5 µM
  relative viability: 0.466
[2]; first compound 0.05 µM
  relative viability: 0.233
[2]; first compound 0.1581 µM
  relative viability: 0.263
[2]; first compound 0.5 µM
  relative viability: 0.268
[2]; first compound 1.581 µM
  relative viability: 0.27
[2]; first compound 5 µM
  relative viability: 0.308
[3]; first compound 0.05 µM
  relative viability: 0.549
[3]; first compound 0.1581 µM
  relative viability: 0.505
[3]; first compound 0.5 µM
  relative viability: 0.556
[3]; first compound 1.581 µM
  relative viability: 0.384
[3]; first compound 5 µM
  relative viability: 0.318
[4]; first compound 0.05 µM
  relative viability: 0.933
[4]; first compound 0.1581 µM
  relative viability: 0.914
[4]; first compound 0.5 µM
  relative viability: 0.78
[4]; first compound 1.581 µM
  relative viability: 0.522
[4]; first compound 5 µM
  relative viability: 0.428

## NCI-H358
[1]; first compound 0.05 µM
  relative viability: 0.481
[1]; first compound 0.1581 µM
  relative viability: 0.575
[1]; first compound 0.5 µM
  relative viability: 0.164
[1]; first compound 1.581 µM
  relative viability: 0.132
[1]; first compound 5 µM
  relative viability: 0.213
[2]; first compound 0.05 µM
  relative viability: 0.151
[2]; first compound 0.1581 µM
  relative viability: 0.195
[2]; first compound 0.5 µM
  relative viability: 0.185
[2]; first compound 1.581 µM
  relative viability: 0.0783
[2]; first compound 5 µM
  relative viability: 0.0726
[3]; first compound 0.05 µM
  relative viability: 0.362
[3]; first compound 0.1581 µM
  relative viability: 0.347
[3]; first compound 0.5 µM
  relative viability: 0.293
[3]; first compound 1.581 µM
  relative viability: 0.148
[3]; first compound 5 µM
  relative viability: 0.14
[4]; first compound 0.05 µM
  relative viability: 0.589
[4]; first compound 0.1581 µM
  relative viability: 0.541
[4]; first compound 0.5 µM
  relative viability: 0.0993
[4]; first compound 1.581 µM
  relative viability: 0.0786
[4]; first compound 5 µM
  relative viability: 0.0711

## NCI-H441
[1]; first compound 0.05 µM
  relative viability: 0.634
[1]; first compound 0.1581 µM
  relative viability: 0.617
[1]; first compound 0.5 µM
  relative viability: 0.287
[1]; first compound 1.581 µM
  relative viability: 0.152
[1]; first compound 5 µM
  relative viability: 0.218
[2]; first compound 0.05 µM
  relative viability: 0.573
[2]; first compound 0.1581 µM
  relative viability: 0.538
[2]; first compound 0.5 µM
  relative viability: 0.265
[2]; first compound 1.581 µM
  relative viability: 0.174
[2]; first compound 5 µM
  relative viability: 0.168
[3]; first compound 0.05 µM
  relative viability: 0.652
[3]; first compound 0.1581 µM
  relative viability: 0.352
[3]; first compound 0.5 µM
  relative viability: 0.163
[3]; first compound 1.581 µM
  relative viability: 0.13
[3]; first compound 5 µM
  relative viability: 0.131
[4]; first compound 0.05 µM
  relative viability: 0.446
[4]; first compound 0.1581 µM
  relative viability: 0.827
[4]; first compound 0.5 µM
  relative viability: 0.195
[4]; first compound 1.581 µM
  relative viability: 0.174
[4]; first compound 5 µM
  relative viability: 0.19

## NCI-H460
[1]; first compound 0.05 µM
  relative viability: 1.14
[1]; first compound 0.1581 µM
  relative viability: 0.899
[1]; first compound 0.5 µM
  relative viability: 0.0648
[1]; first compound 1.581 µM
  relative viability: 0.0097
[1]; first compound 5 µM
  relative viability: 0.0254
[2]; first compound 0.05 µM
  relative viability: 0.593
[2]; first compound 0.1581 µM
  relative viability: 0.636
[2]; first compound 0.5 µM
  relative viability: 0.283
[2]; first compound 1.581 µM
  relative viability: 0.0166
[2]; first compound 5 µM
  relative viability: 0.0348
[3]; first compound 0.05 µM
  relative viability: 0.401
[3]; first compound 0.1581 µM
  relative viability: 0.206
[3]; first compound 0.5 µM
  relative viability: 0.323
[3]; first compound 1.581 µM
  relative viability: 0.0526
[3]; first compound 5 µM
  relative viability: 0.183
[4]; first compound 0.05 µM
  relative viability: 0.745
[4]; first compound 0.1581 µM
  relative viability: 0.723
[4]; first compound 0.5 µM
  relative viability: 0.0471
[4]; first compound 1.581 µM
  relative viability: 0.0166
[4]; first compound 5 µM
  relative viability: 0.0169

## NCI-H520
[1]; first compound 0.05 µM
  relative viability: 0.984
[1]; first compound 0.1581 µM
  relative viability: 0.513
[1]; first compound 0.5 µM
  relative viability: 0.19
[1]; first compound 1.581 µM
  relative viability: 0.148
[1]; first compound 5 µM
  relative viability: 0.16
[2]; first compound 0.05 µM
  relative viability: 0.239
[2]; first compound 0.1581 µM
  relative viability: 0.202
[2]; first compound 0.5 µM
  relative viability: 0.157
[2]; first compound 1.581 µM
  relative viability: 0.191
[2]; first compound 5 µM
  relative viability: 0.193
[3]; first compound 0.05 µM
  relative viability: 0.29
[3]; first compound 0.1581 µM
  relative viability: 0.316
[3]; first compound 0.5 µM
  relative viability: 0.345
[3]; first compound 1.581 µM
  relative viability: 0.193
[3]; first compound 5 µM
  relative viability: 0.172
[4]; first compound 0.05 µM
  relative viability: 0.343
[4]; first compound 0.1581 µM
  relative viability: 0.621
[4]; first compound 0.5 µM
  relative viability: 0.215
[4]; first compound 1.581 µM
  relative viability: 0.179
[4]; first compound 5 µM
  relative viability: 0.183

## NCI-H596
[1]; first compound 0.05 µM
  relative viability: 0.959
[1]; first compound 0.1581 µM
  relative viability: 0.965
[1]; first compound 0.5 µM
  relative viability: 0.991
[1]; first compound 1.581 µM
  relative viability: 0.814
[1]; first compound 5 µM
  relative viability: 0.401
[2]; first compound 0.05 µM
  relative viability: 0.616
[2]; first compound 0.1581 µM
  relative viability: 0.561
[2]; first compound 0.5 µM
  relative viability: 0.478
[2]; first compound 1.581 µM
  relative viability: 0.279
[2]; first compound 5 µM
  relative viability: 0.235
[3]; first compound 0.05 µM
  relative viability: 0.393
[3]; first compound 0.1581 µM
  relative viability: 0.405
[3]; first compound 0.5 µM
  relative viability: 0.371
[3]; first compound 1.581 µM
  relative viability: 0.191
[3]; first compound 5 µM
  relative viability: 0.178
[4]; first compound 0.05 µM
  relative viability: 0.598
[4]; first compound 0.1581 µM
  relative viability: 0.405
[4]; first compound 0.5 µM
  relative viability: 0.515
[4]; first compound 1.581 µM
  relative viability: 0.246
[4]; first compound 5 µM
  relative viability: 0.162
